This is an account of results in patent US8546382B2, “Methods for enhancing hematopoietic progenitor cell engraftment” (Children's Medical Center Corporation, priority 2009, dated 2013).

Data set [1] concerns whole bone marrow collected from the DBA/1J mouse strain. The experiment in a line: Hematopoietic colony formation in methylcellulose (M3434) in the presence of PPAR gamma inhibitors. Type of data set: cell-based. The settings on record: 3 ml M3434 with 1.5 μL of working concentration of each compound; N=2.
Procedure: Progenitor activity was measured by formation of hematopoietic colonies in methylcellulose (M3434) from whole bone marrow collected from the DBA/1J mouse strain. Cells were plated in 3 ml M3434 along with 1.5 μL of the working concentration of each compound.
For data set [2], the system named is Wildtype BM. The experiment in a line: Colony forming unit (CFU) assay of wildtype BM plated with BADGE in vitro. Format: cell-based, mouse. As to conditions: BADGE 30 mg/kg vs DMSO vehicle control (0.5 μL/mL); after 8-10 days. As for the experimental part:
14a. Wildtype BM was plated in the presence of BADGE 30 mg/kg, or DMSO vehicle control (0.5 μL/mL).
Colony forming unit (CFU) assays were performed in complete M3434 methylcellulose (Stem Cell Technologies) following the manufacturer's instructions. Colonies were scored on day 8-10 on coded plates for unbiased counts.

The test system of data set [3] is wild-type female FVB mice. The experiment in a line: BM transplantation in lethally irradiated wild-type mice with daily BADGE. Type of data set: in vivo, mouse. On the procedure: BM transplants were performed in wild-type female FVB mice as described for FIG. 2 except that 30 mg/kg BADGE or control vehicle (DMSO 10%) were administered through daily intra-peritoneal injections from the day prior to irradiation until day 14 post-transplant. 4a. […] 4b. Colony forming unit assay (CFU) from the recovered donor BM.
Finally, it was tested whether pharmacologic antagonism of adipogenesis could enhance bone marrow engraftment in wild-type mice.
Thorax, tibias and tails for homeostasis studies were isolated from wildtype C57BL6/J mice. When BM transplantation was performed, B6.SJL-Ptprca Pep3b/BoyJ were used as donors to take advantage of the CD45.1/CD45.2 allelic system (Jackson Laboratories #0002014). Bone marrow transplantation and CFU-Spleen assays were performed on lethally irradiated mice (two 5.5Gy doses separated by 3 hrs) and cells were administered by tail vein injection within 24 hrs of lethal irradiation. For competitive transplantation, samples were competed against 250,000 recipient-matched competitor femoral bone marrow. FVB wildtype litter-mates mice were used as controls for FVB.A-ZIP/F1 fatless mice. During BM transplantation assays FVB or FVB.A-ZIP/F1 mice (CD45.1) received 200,000 MHC-matched (H^q) wildtype BM from DBA/1J mice (CD45.2). Secondary transplants were performed through recovery of the CD45.2 […] BM passed through the FVB wildtype or FVB.A-ZIP/F1 microenvironment, which was then transplanted into FVB (CD45.1) recipients together with 250,000 FVB (CD45.1) wildtype competitor BM cells. For pharmacological inhibition of adipocyte formation, BM transplants were performed in wild-type female FVB mice as described above, except that 30 mg/kg BADGE or control vehicle (DMSO 10%) were administered in daily intraperitoneal injections starting one day prior to irradiation and continuing until day 14 post-transplant. Solutions were made such that 500 mg BADGE (Fluka) was resuspended in 8.3 ml DMSO (Sigma) and diluted in PBS to a final concentration of 10% DMSO for administration at 30 mg/kg in 100 ul. Aliquots were stored at −20° C. and thawed daily. Multicolor flow cytometry was performed in a special order BD five-laser LSRII flow cytometer. Cell cycle analysis was performed with DAPI (Sigma) in cells fixed in 2% paraformaldehyde for 15 min at 4° C. For all statistical analysis an un-paired two-tailed Student's t-test was performed assuming experimental samples of equal variance. […]
Mice were lethally irradiated with 11-12Gy on a split dose separated by 2.5 h and BM transplants were performed within 24 h by tail-vein injection. Engraftment was measured monthly through eye bleed and FACS analysis with CD45.1-FITC (eBiosciences), CD45.2-PE or CD45.2-biotin, CD3-PE, CD19-PE, Mac-1-PE. […]

Data set [4] concerns bone marrow adipocyte formation. As to conditions: in vitro and in vivo in models of streptozotocin-induced diabetes; cited from earlier work.
In data set [5] the test system is patients. The settings on record: patients treated with the PPARγ agonist; cited from earlier work.

“Also recorded” adds a separate entry of the source.

On to `O=C(Nc1ccncc1)c1cc([N+](=O)[O-])ccc1Cl` [T0070907, 2-chloro-5-nitro-N-4-pyridinyl-benzamide], for which, in data set [1], the “Number of hematopoietic colonies relative to vehicle control” value was “fewer colonies relative to the vehicle control”.

Regarding `CC(C)(c1ccc(OCC2CO2)cc1)c1ccc(OCC2CO2)cc1` (centres unmarked) [BADGE, Bisphenol-A-DiGlycidyl-Ether], the “Ability to form CFUs (hematopoietic colony formation) in vitro” value in data set [2] is given as “does not enhance hematopoietic colony formation; also recorded: No difference”. Besides, the “White blood cell (WBC) / leukocyte counts in peripheral blood in the post-transplant period” value in data set [3] (30 mg/kg BADGE daily i.p. from day prior to irradiation until day 14 post-transplant, vs vehicle (DMSO 10%)) is listed as “Higher peripheral blood leukocyte counts; also recorded: accelerated recovery”. Also, in data set [3] (30 mg/kg BADGE daily i.p., donor CD45.2 BM recovered day 17 post-transplant), the “Colony forming units (CFU) from the recovered donor BM” value is on record as “enrichment in colony forming units”. The “BM adipocyte formation by H&E staining of femurs” value in data set [3] (BADGE for two weeks following BM transplantation, mice sacrificed day 17 post-transplant) is listed as “successful inhibition of BM adipocyte formation”. Further, the “Hematopoietic recovery after BM transplant” value in data set [3] (pharmacologic inhibition of adipocyte formation with BADGE) is “enhances hematopoietic recovery”. For the same compound, the “Bone marrow adipocyte formation” value in data set [4] is on record as “prevent bone marrow adipocyte formation”.

With `CN(CCOc1ccc(CC2SC(=O)NC2=O)cc1)c1ccccn1` (centres unmarked) [rosiglitazone], the “Adverse haematological effect in treated patients” value in data set [5] is on record as “myelosuppression”.
